Laboratory results reported in US5644055A, “Antihypertensive tricyclic azepine derivatives useful as inhibitors of enkephalinase and ACE” (Ciba-Geigy Corporation, priority 1995, dated 1997).

Legend:
[1] = molecular target: T1, angiotensin-converting enzyme (Oryctolagus cuniculus, UniProt P12822); assay: in vitro inhibition of the angiotensin-converting enzyme (hippuryl-histidyl-leucine substrate); assay type: biochemical; conditions: pH 8.3, 30 minutes at 37° C., read-out: IC50, inhibiting ACE in vitro assay
T1 sequence (P12822 34-1310): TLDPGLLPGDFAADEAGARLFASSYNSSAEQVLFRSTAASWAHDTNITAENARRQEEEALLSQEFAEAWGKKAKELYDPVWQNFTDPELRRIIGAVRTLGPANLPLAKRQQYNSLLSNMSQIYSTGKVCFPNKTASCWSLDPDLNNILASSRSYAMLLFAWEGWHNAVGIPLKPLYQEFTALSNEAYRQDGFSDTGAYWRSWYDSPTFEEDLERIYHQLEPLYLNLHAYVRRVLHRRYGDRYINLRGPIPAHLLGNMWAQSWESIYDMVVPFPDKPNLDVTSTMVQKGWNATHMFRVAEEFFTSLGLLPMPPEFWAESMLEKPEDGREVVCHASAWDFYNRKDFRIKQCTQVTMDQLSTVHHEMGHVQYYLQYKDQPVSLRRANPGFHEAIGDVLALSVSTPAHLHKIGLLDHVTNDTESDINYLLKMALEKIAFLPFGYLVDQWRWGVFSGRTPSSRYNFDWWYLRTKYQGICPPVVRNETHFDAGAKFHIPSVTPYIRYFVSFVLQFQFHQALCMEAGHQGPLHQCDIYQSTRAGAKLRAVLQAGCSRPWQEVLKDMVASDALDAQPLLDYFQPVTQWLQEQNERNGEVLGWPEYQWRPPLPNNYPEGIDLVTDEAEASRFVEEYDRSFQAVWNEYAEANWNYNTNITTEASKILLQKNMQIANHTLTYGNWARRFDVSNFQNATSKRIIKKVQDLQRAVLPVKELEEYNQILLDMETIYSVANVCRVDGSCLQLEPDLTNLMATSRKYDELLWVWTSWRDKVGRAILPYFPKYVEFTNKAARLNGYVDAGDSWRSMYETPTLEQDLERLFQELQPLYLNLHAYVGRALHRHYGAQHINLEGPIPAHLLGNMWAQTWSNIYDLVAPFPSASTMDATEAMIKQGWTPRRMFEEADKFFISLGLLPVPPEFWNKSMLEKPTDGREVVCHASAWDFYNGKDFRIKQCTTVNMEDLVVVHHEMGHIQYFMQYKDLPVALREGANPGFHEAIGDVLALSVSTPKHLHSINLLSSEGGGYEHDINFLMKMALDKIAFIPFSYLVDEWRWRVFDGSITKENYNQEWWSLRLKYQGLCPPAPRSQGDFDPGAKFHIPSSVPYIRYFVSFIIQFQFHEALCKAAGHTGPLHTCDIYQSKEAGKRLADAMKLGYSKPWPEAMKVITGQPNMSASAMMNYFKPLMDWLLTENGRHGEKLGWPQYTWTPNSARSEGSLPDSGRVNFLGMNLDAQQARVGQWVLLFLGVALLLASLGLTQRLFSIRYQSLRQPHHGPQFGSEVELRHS
Description: (§1) In vitro testing is most appropriate for the free carboxylic acids of the invention. The test compound is dissolved in dimethyl sulfoxide, ethanol, or 0.25M sodium bicarbonate solution, and the solution is diluted with buffer to the desired concentration.
The buffer for the ACE assay is 300 mM NaCl, […] KH2 PO4 (pH 8.3). The reaction is initiated by the addition of 100 μl of hippuryl-histidyl-leucine (2 mg/ml) to tubes containing enzyme and drug in a volume of 150 μl and tubes are incubated for 30 minutes at 37° C. The reaction is terminated by the addition of 0.75 ml 0.6N NaOH. 100 μl of freshly prepared O-pthaldehyde solution (2 mg/ml in methanol) is added to the tubes, the contents are mixed and allowed to stand at room temperature. After 10 minutes, 100 μl of 6N HCl is added. The tubes are centrifuged and the supernatant optical density is read at 360 nm. The results are plotted against drug concentration to determine the IC50, i.e., the drug concentration which gives half the activity of the control sample containing no drug.

[2] = molecular target: T2, neutral endopeptidase (NEP, EC 3.4.24.11) (Rattus norvegicus, UniProt P07861); assay: in vitro inhibition of neutral endopeptidase (GAAP in vitro assay); assay type: biochemical; conditions: rat kidney cortex membranes, 500 μM glutaryl-Ala-Ala-Phe-2-naphthylamide, pH 7.4, 10 minutes at 25° C.
T2 construct: rat kidney cortex membranes; from tissue; host or cells: rat kidney cortex membranes
T2 sequence (P07861 1-750): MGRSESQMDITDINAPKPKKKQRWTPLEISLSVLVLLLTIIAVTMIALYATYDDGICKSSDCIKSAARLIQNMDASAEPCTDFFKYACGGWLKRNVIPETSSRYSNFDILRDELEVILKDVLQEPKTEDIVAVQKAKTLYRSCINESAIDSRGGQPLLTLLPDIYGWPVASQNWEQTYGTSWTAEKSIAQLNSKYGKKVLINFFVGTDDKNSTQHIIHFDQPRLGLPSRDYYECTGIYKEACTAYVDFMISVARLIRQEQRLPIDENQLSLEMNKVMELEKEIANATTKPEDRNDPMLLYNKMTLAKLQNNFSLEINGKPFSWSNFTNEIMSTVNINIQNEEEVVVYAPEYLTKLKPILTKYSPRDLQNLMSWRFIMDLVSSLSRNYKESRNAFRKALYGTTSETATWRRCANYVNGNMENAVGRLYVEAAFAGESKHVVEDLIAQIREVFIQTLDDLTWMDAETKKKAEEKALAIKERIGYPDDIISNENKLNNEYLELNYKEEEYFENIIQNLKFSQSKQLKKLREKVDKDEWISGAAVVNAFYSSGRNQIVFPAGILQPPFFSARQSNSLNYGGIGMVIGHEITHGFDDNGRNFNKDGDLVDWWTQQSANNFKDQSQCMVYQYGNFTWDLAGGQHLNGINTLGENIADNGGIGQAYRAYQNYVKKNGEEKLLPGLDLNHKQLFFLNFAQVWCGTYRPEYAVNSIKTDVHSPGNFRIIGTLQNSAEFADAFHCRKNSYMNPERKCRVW
Description: as §1
The in vitro inhibition of neutral endopeptidase (NEP, EC 3.4.24.11) can be determined as follows:
Neutral endopeptidase 3.4.24.11 activity is determined by the hydrolysis of the substrate glutaryl-Ala-Ala-Phe-2-naphthylamide (GAAP) using a modified procedure of Orlowski and Wilk (1981). The incubation mixture (total volume 125 μl) contains 4.2 μg of protein (rat kidney cortex membranes prepared by method of Maeda et at, 1983), 50 mM tris buffer, pH 7.4 at 25° C., 500 μM substrate (final concentration), and leucine aminopeptidase M (2.5 μg). The mixture is incubated for 10 minutes at 25° C. and 100 μl of fast garnet (250 μg fast garnet/ml of 10% Tween 20 in 1M sodium acetate, pH 4.2) is added. Enzyme activity is measured spectrophotometrically at 540 nm. One unit of NEP 24.11 activity is defined as 1 nmol of 2-naphthylamine released per minute at 25° C. at pH 7.4. IC50 values are determined, i.e. the concentration of test compound required for 50% inhibition of the release of 2-naphthylamine.

Structure (SMILES) | IC50 [1] [nM] | IC50 [2] [nM]
O=C(N[C@H]1CCc2cccc3c2N(C1=O)[C@H](C(=O)O)C3)[C@@H](S)Cc1ccccc1 [2(a), 5-[((S)-2-mercapto-3-phenylpropionyl)-(S)-amino]-1,2,4,5,6,7-hexahydroazepino[3,2,1-hi]indole-4-one-2-(S)-carboxylic acid] | ~30 | ~50
CC(C)[C@H](S)C(=O)N[C@H]1CCc2cccc3c2N(C1=O)[C@H](C(=O)O)C3 [5(a), 5-[((S)-2-mercapto-3-methylbutanoyl)-(S)-amino]-1,2,4,5,6,7-hexahydro-azepino[3,2,1-hi]indole-4-one-2-(S)-carboxylic acid] | ~30 | –
O=C(N[C@H]1CCc2cccc3c2N(C1=O)[C@H](C(=O)O)C3)[C@@H](CS)Cc1ccc(-c2ccccc2)cc1 [6(b), 5-[((S)-2-biphenyl-4-ylmethyl-3-mercapto-propionyl)-(S)-amino]-1,2,4,5,6,7-hexahydroazepino[3,2,1-hi]indole-4-one-2-(S)-carboxylic acid] | ~77 | ~15
